From PubChem BioAssay AID1845212 (Molecular Pharmacology Branch, DTP, NCI, 2023)
“And” between values parts separate entries of the source, which are not always exact repeats. Identical values can stand only once.

System: NCI-H719 tumor spheroids, viability
Assay: Anticancer human tumor NCI-H719 cell line growth inhibition;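 also: spheroids exposed to compounds for seven days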;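 as to viability, T/C: percent viability relative to DMSO vehicle control as 100%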
Details: spheroids with HUVEC and MSC; for viability, T/C: stronger effect = lower value
Outline: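 Complex spheroids of malignant cells with endothelial cells and mesenchymal stem cells; agents alone or combined, from near clinical Cmax (or 10 microM if unknown) down in half-log steps, 0.25% DMSO final.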

[1] = curve of first compound, second compound 30 pM
[2] = curve of first compound, second compound 94.9 pM
[3] = curve of first compound, second compound 0.0003 µM
[4] = curve of first compound, second compound 0.000949 µM
[5] = curve of first compound, second compound 0.003 µM
[6] = second compound 30 pM, first compound 0.0316 µM
[7] = second compound 30 pM, first compound 0.1 µM
[8] = second compound 30 pM, first compound 0.316 µM
[9] = second compound 30 pM, first compound 1 µM
[10] = second compound 30 pM, first compound 3.16 µM
[11] = second compound 30 pM, first compound 10 µM
[12] = second compound 94.9 pM, first compound 0.0316 µM
[13] = second compound 94.9 pM, first compound 0.1 µM
[14] = second compound 94.9 pM, first compound 0.316 µM
[15] = second compound 94.9 pM, first compound 1 µM
[16] = second compound 94.9 pM, first compound 3.16 µM
[17] = second compound 94.9 pM, first compound 10 µM
[18] = second compound 0.0003 µM, first compound 0.0316 µM
[19] = second compound 0.0003 µM, first compound 0.1 µM
[20] = second compound 0.0003 µM, first compound 0.316 µM
[21] = second compound 0.0003 µM, first compound 1 µM
[22] = second compound 0.0003 µM, first compound 3.16 µM
[23] = second compound 0.0003 µM, first compound 10 µM
[24] = second compound 0.000949 µM, first compound 0.0316 µM
[25] = second compound 0.000949 µM, first compound 0.1 µM
[26] = second compound 0.000949 µM, first compound 0.316 µM
[27] = second compound 0.000949 µM, first compound 1 µM
[28] = second compound 0.000949 µM, first compound 3.16 µM
[29] = second compound 0.000949 µM, first compound 10 µM
[30] = second compound 0.003 µM, first compound 0.0316 µM
[31] = second compound 0.003 µM, first compound 0.1 µM
[32] = second compound 0.003 µM, first compound 0.316 µM
[33] = second compound 0.003 µM, first compound 1 µM
[34] = second compound 0.003 µM, first compound 3.16 µM
[35] = second compound 0.003 µM, first compound 10 µM

SMILES: COc1cc(C)[nH]c(=O)c1CN1CCc2c(Cl)cc(C(OC)C3COC3)c(Cl)c2C1=O (centres undefined) + COc1cc2c(cc1O)CCNC21CSC2c3c(OC(C)=O)c(C)c4c(c3C(COC1=O)N1C(O)C3Cc5cc(C)c(OC)c(O)c5C(C21)N3C)OCO4
- IC50 [1]: > 10 µM
- IC50 [2]: < 0.0316 µM
- IC50 [3]: < 0.0316 µM
- IC50 [4]: < 0.0316 µM
- IC50 [5]: < 0.0316 µM
- viability, T/C [6]: 91.6%
- viability, T/C [7]: 85%
- viability, T/C [8]: 88.3%
- viability, T/C [9]: 95.7%
- viability, T/C [10]: 90.9%
- viability, T/C [11]: 82.9%
- viability, T/C [12]: 39.9%
- viability, T/C [13]: 42.6%
- viability, T/C [14]: 43.9%
- viability, T/C [15]: 31.1%
- viability, T/C [16]: 32.4%
- viability, T/C [17]: 50.6%
- viability, T/C [18]: 13.2%
- viability, T/C [19]: 6.14%
- viability, T/C [20]: 8.15%
- viability, T/C [21]: 5.96%
- viability, T/C [22]: 6.6%
- viability, T/C [23]: 7.13%
- viability, T/C [24]: 6.97%
- viability, T/C [25]: 6.88%
- viability, T/C [26]: 8.11%
- viability, T/C [27]: 6.65%
- viability, T/C [28]: 6.56%
- viability, T/C [29]: 6.23%
- viability, T/C [30]: 0.23%
- viability, T/C [31]: 0.35%
- viability, T/C [32]: 0.34%
- viability, T/C [33]: 0.86%
- viability, T/C [34]: 0.34%
- viability, T/C [35]: 0.93%

SMILES: Cc1cc(C)c(CNC(=O)c2cc(-c3ccc(CN4CCOCC4)cc3)cc3c2cnn3C2CCCC2)c(=O)[nH]1
- viability, T/C (compound 0.0316 µM): 80.8% and 102% and 115%
- viability, T/C (compound 0.1 µM): 83.4% and 99.2% and 117%
- viability, T/C (compound 0.316 µM): 84.8% and 97.1% and 111%
- viability, T/C (compound 1 µM): 79.3% and 108% and 121%
- viability, T/C (compound 3.16 µM): 114% and 92.6% and 103%
- viability, T/C (compound 10 µM): 77.5% and 87.8% and 72.1%
- IC50 (curve of compound): > 10 µM

SMILES: COc1cc(C)[nH]c(=O)c1CN1CCc2c(Cl)cc(C(OC)C3COC3)c(Cl)c2C1=O (centres undefined)
- viability, T/C (compound 0.0316 µM): 100% and 103% and 101%
- viability, T/C (compound 0.1 µM): 102% and 75.5% and 111%
- viability, T/C (compound 0.316 µM): 108%
- viability, T/C (compound 1 µM): 109% and 114% (2×)
- viability, T/C (compound 3.16 µM): 102% and 113% and 106%
- viability, T/C (compound 10 µM): 114% and 125% and 109%
- IC50 (curve of compound): > 10 µM

SMILES: CC1COCCN1c1cc(-c2ccnn2C)c2ccnc(-c3ccn[nH]3)c2n1 (centres undefined) + COc1cc2c(cc1O)CCNC21CSC2c3c(OC(C)=O)c(C)c4c(c3C(COC1=O)N1C(O)C3Cc5cc(C)c(OC)c(O)c5C(C21)N3C)OCO4
- IC50 [1]: < 0.0316 µM
- IC50 [2]: < 0.0316 µM
- IC50 [3]: < 0.0316 µM
- IC50 [4]: < 0.0316 µM
- IC50 [5]: < 0.0316 µM
- viability, T/C [6]: 29%
- viability, T/C [7]: 19.2%
- viability, T/C [8]: 16.2%
- viability, T/C [9]: 9.83%
- viability, T/C [10]: 8.37%
- viability, T/C [11]: 11%
- viability, T/C [12]: 13.6%
- viability, T/C [13]: 7.91%
- viability, T/C [14]: 7.75%
- viability, T/C [15]: 7.08%
- viability, T/C [16]: 6.07%
- viability, T/C [17]: 10.4%
- viability, T/C [18]: 7.42%
- viability, T/C [19]: 7.97%
- viability, T/C [20]: 6.18%
- viability, T/C [21]: 5.64%
- viability, T/C [22]: 6.36%
- viability, T/C [23]: 9.31%
- viability, T/C [24]: 7.59%
- viability, T/C [25]: 7.35%
- viability, T/C [26]: 6.11%
- viability, T/C [27]: 3.98%
- viability, T/C [28]: 3.9%
- viability, T/C [29]: 3.4%
- viability, T/C [30]: 0.28%
- viability, T/C [31]: 0.46%
- viability, T/C [32]: 0.86%
- viability, T/C [33]: 1.82%
- viability, T/C [34]: 0.25%
- viability, T/C [35]: 0.52%

SMILES: [2H]c1nc(C)nc([2H])c1-c1cc(NC[C@@H](C)c2cccc3c(C(=O)NC)ccnc23)ncn1 + Cn1nnc2c(C(N)=O)ncn2c1=O
- IC50 (curve of first compound, second compound 1 µM): > 10 µM
- IC50 (curve of first compound, second compound 3.16 µM): > 10 µM
- IC50 (curve of first compound, second compound 10 µM): > 10 µM
- IC50 (curve of first compound, second compound 31.6 µM): > 10 µM
- IC50 (curve of first compound, second compound 100 µM): > 10 µM
- viability, T/C (second compound 1 µM, first compound 0.0316 µM): 93.8%
- viability, T/C (second compound 1 µM, first compound 0.1 µM): 101%
- viability, T/C (second compound 1 µM, first compound 0.316 µM): 90.4%
- viability, T/C (second compound 1 µM, first compound 1 µM): 99.2%
- viability, T/C (second compound 1 µM, first compound 3.16 µM): 90.6%
- viability, T/C (second compound 1 µM, first compound 10 µM): 87.8%
- viability, T/C (second compound 3.16 µM, first compound 0.0316 µM): 104%
- viability, T/C (second compound 3.16 µM, first compound 0.1 µM): 90.1%
- viability, T/C (second compound 3.16 µM, first compound 0.316 µM): 95.3%
- viability, T/C (second compound 3.16 µM, first compound 1 µM): 94.4%
- viability, T/C (second compound 3.16 µM, first compound 3.16 µM): 98.9%
- viability, T/C (second compound 3.16 µM, first compound 10 µM): 98.7%
- viability, T/C (second compound 10 µM, first compound 0.0316 µM): 103%
- viability, T/C (second compound 10 µM, first compound 0.1 µM): 97%
- viability, T/C (second compound 10 µM, first compound 0.316 µM): 90.4%
- viability, T/C (second compound 10 µM, first compound 1 µM): 96.8%
- viability, T/C (second compound 10 µM, first compound 3.16 µM): 89.8%
- viability, T/C (second compound 10 µM, first compound 10 µM): 94.2%
- viability, T/C (second compound 31.6 µM, first compound 0.0316 µM): 101%
- viability, T/C (second compound 31.6 µM, first compound 0.1 µM): 105%
- viability, T/C (second compound 31.6 µM, first compound 0.316 µM): 101%
- viability, T/C (second compound 31.6 µM, first compound 1 µM): 104%
- viability, T/C (second compound 31.6 µM, first compound 3.16 µM): 109%
- viability, T/C (second compound 31.6 µM, first compound 10 µM): 82.4%
- viability, T/C (second compound 100 µM, first compound 0.0316 µM): 87.1%
- viability, T/C (second compound 100 µM, first compound 0.1 µM): 84.2%
- viability, T/C (second compound 100 µM, first compound 0.316 µM): 68.6%
- viability, T/C (second compound 100 µM, first compound 1 µM): 70.3%
- viability, T/C (second compound 100 µM, first compound 3.16 µM): 68.2%
- viability, T/C (second compound 100 µM, first compound 10 µM): 62.8%

SMILES: COc1cc2c(cc1O)CCNC21CSC2c3c(OC(C)=O)c(C)c4c(c3C(COC1=O)N1C(O)C3Cc5cc(C)c(OC)c(O)c5C(C21)N3C)OCO4 (centres undefined)
- viability, T/C (compound 94.9 pM): 36.8% [middle of 10 runs]
- viability, T/C (compound 0.0003 µM): 8.36% [middle of 10 runs]
- viability, T/C (compound 0.000949 µM): 7.96% [middle of 10 runs]
- viability, T/C (compound 0.003 µM): 0.83% [middle of 9 runs]
- IC50 (compound alone, run of 12/16/2019): 0.0663 nM [middle of 10 runs]
